{
  "source": "patent US20050147665A1",
  "about": "“Pharmaceutical and nutritional compositions” (Laxdale Limited, priority 1999, published 2005)",
  "origin": "cited, not measured here",
  "settings": "patients with end-stage renal disease; lowering homocysteine by treatment with folic acid",
  "data": [
    {"smiles": "Nc1nc2ncc(CNc3ccc(C(=O)N[C@@H](CCC(=O)O)C(=O)O)cc3)nc2c(=O)[nH]1", "note": "[folic acid]", "values": [
      {"measurement": "elevations of DGLA and AA levels", "result": "significant in the cases of DGLA and AA"},
      {"measurement": "elevations of EPA and DHA levels", "result": "not significant in the cases of EPA and DHA"}
    ]}
  ]
}
